The values below come from patent US20050256037A1, “Antibacterial amide macrocyles” (Bayer HealthCare AG, priority 2003, published 2005).

Molecules are shown by their SMILES. In brackets after ≈: the same amount, converted by molar mass. Counter-ions that a name gives are not always drawn. Like-named read-outs stand apart in the source and are kept apart here. Marks after values point to notes of the source that are not given here.

Format in all cases: cell-based
Assay [1] has as its system E. faecium L4001. The experiment in a line: MIC, alternative method: agar dilution test with 20% defibrinated horse blood. The conditions noted are these: Enterococcus faecium. How it is done: (§1) Alternative Method for Determining the Minimum Inhibitory Concentration (MIC)
(§2) The minimum inhibitory concentration (MIC) is the minimum concentration of an antibiotic with which the growth of a test microbe is inhibited over 18-24 h. The inhibitor concentration can be determined by standard microbiological methods using modified medium in an agar dilution test (see, for example, the National Committee for Clinical Laboratory Standards. Methods for dilution antimicrobial susceptibility tests for bacteria that grow aerobically; approved standard-fifth edition. NCCLS document M7-A5 [ISBN 1-56238-394-9]. NCCLS, 940 West Valley Road, Suite 1400, Wayne, Pa. 19087-1898 USA, 2000). The bacterial microbes are cultivated on 1.5% agar plates containing 20% defibrinated horse blood. The test microbes, which are incubated on Columbia blood agar plates (Becton-Dickinson) overnight, are diluted in PBS, adjusted to a microbe count of about 5×10^5 microbes/ml and placed as drops (1-3 μl) on test plates. The test substances contain various dilutions of the test substances (1:2 dilution stages). The cultures are incubated at 37° C. in the presence of 5% CO2 for 18-24 hours.
(§3) The lowest concentration of each substance at which no visible bacterial growth occurs is defined as the MIC and is reported in μg/ml.

The subject of another assay is S. aureus E33. The description is as above. The conditions noted are these: Staphylococcus aureus. How it is done:
as §1, §2, §3

Assay [2] deals with S. aureus T17. The assay is described as above. The conditions noted are these: Staphylococcus aureus. The method, then: as §1, §2, §3
For another assay, the system named is S. aureus 133. The assay can be described thus: Rate of spontaneous resistance. How it is done:
(§4) Determination of the Rates of Spontaneous Resistance to S. aureus
(§5) The spontaneous resistance rates for the compounds of the invention are determined as follows: the bacterial microbes are cultivated in 30 ml of a minimal medium (18.5 mM Na2HPO4, 5.7 mM KH2PO4, 9.3 mM NH4Cl, 2.8 mM MgSO4, 17.1 mM NaCl, 0.033 μg/ml thiamine hydrochloride, 1.2 μg/ml nicotinic acid, 0.003 μg/ml biotin, 1% glucose, 25 μg/ml of each proteinogenic amino acid with the addition of 0.4% BH broth) at 37° C. overnight, centrifuged at 6000×g for 10 min and resuspended in 2 ml of phosphate-buffered physiological NaCl solution (about 2×10^9 microbes/ml). […] The resulting colonies (cfu) are counted.

The next assay has as its system S. aureus RN4220Bi^R. The assay can be described thus: Rate of spontaneous resistance. How it is done:
as §4, §5

For the next assay, the system named is S. aureus RN4220. The experiment in a line: Rate of spontaneous resistance. How it is done: as §4, §5
Assay [3] deals with S. aureus T17. The experiment in a line: Rate of spontaneous resistance. The conditions noted are these: 10 × MIC. The method, then:
as §4, §5

A further assay has as its system E. faecalis ICB 27159. The assay can be described thus: Rate of spontaneous resistance. To be noted: * = colonies with increased MIC (4-8-fold) were isolated.
A further assay has as its system S. pneumoniae G9a. The assay can be described thus: Rate of spontaneous resistance. To be noted: 5 × MIC; * = colonies with increased MIC (4-8-fold) were isolated.
Assay [4] relates to E. faecium L4001. The experiment in a line: Rate of spontaneous resistance.
Where [5] appears, read: L4001, read-out: MIC E. faecium L4001.
[6] abbreviates: E33, read-out: MIC S. aureus E33.
The mark [7] stands for this setting: T17, read-out: MIC S. aureus T17.

On to `CN1C(=O)[C@H](C[C@@H](O)CN)NC(=O)[C@@H](N)Cc2cc(ccc2O)-c2ccc(O)c(c2)C[C@H]1C(=O)NCCN` [Example 1, (8S,11S,14S)-14-amino-N-(2-aminoethyl)-11-[(2R)-3-amino-2-hydroxypropyl]-5,17-dihydroxy-9-methyl-10,13-dioxo-9,12-diazatricyclo[14.3.1.1.^2,6]henicosa-1(20),2(21),3,5,16,18-hexaene-8-carboxamide, trihydrochloride], for which the results for the minimal inhibitory concentration (MIC) in the assay with E. faecium L4001 [1] (setting [5]), in the assay with S. aureus E33 (setting [6]) and in the assay on S. aureus T17 [2] (setting [7]) were 16 µg/mL, 4 µg/mL and 4 µg/mL, respectively. Also, in the assay on S. aureus 133 (10 × MIC), the “Rate of spontaneous resistance S. aureus 133” value is listed as <4 × 10^−8. Besides, the “Rate of spontaneous resistance S. aureus RN4220Bi^R” value with S. aureus RN4220Bi^R (10 × MIC) was <6 × 10^−8. Further, in the assay with S. aureus RN4220 (10 × MIC), the “Rate of spontaneous resistance S. aureus RN4220” value was <6 × 10^−8. The “Rate of spontaneous resistance S. aureus T17” value in the assay with S. aureus T17 [3] is given as <4 × 10^−8.

For `NC[C@H](O)C[C@@H]1NC(=O)[C@@H](N)Cc2cc(ccc2O)-c2ccc(O)c(c2)C[C@@H](C(=O)O)NC1=O` [Example 20A, 14(S)-Amino-1(S)-(3-amino-2(R)-hydroxypropyl)-5,17-dihydroxy-10,13-dioxo-9,12-diazatricyclo[14.3.1.1^2,6]henicosa-1(19),2,4,6(21),16(20),17-hexaene-8(S)-carboxylic acid dihydrochloride, reference compound], the minimal inhibitory concentration (MIC) with E. faecium L4001 [1] (L4001, Table B, agar dilution, 20% defibrinated horse blood, read-out: MIC E. faecium L4001) is 0.5 µg/mL; in the assay on S. aureus E33 (E33, Table B, agar dilution, 20% defibrinated horse blood, read-out: MIC S. aureus E33) it was < 0.03 µg/mL; in the assay with S. aureus T17 [2] (T17, Table B, agar dilution, 20% defibrinated horse blood, read-out: MIC S. aureus T17), > 32 µg/mL. Also, the “Rate of spontaneous resistance S. aureus 133” value in the assay on S. aureus 133 (10 × MIC) is <1.7 × 10^−6. For the same compound, the “Rate of spontaneous resistance E. faecalis ICB 27159” value in the assay on E. faecalis ICB 27159 (10 × MIC) is on record as 4.1 × 10^−6.

`NCCC[C@@H]1NC(=O)[C@@H](N)Cc2cc(ccc2O)-c2ccc(O)c(c2)C[C@@H](C(=O)NCCN)NC1=O` [Example 6, (8S,11S,14S)-14-amino-N-(2-aminoethyl)-11-(3-aminopropyl)-5,17-dihydroxy-10,1 3-dioxo-9,12-diazatricyclo[14.3.1.1^2,6]henicosa-1(20),2(21),3,5,16,18-hexaene-8-carboxamide]: the results for the MIC with E. faecium L4001 [1] (setting [5]), in the assay on S. aureus E33 (setting [6]) and in the assay with S. aureus T17 [2] (setting [7]) were 8 µg/mL (≈ 16 µM), 0.5 µg/mL (≈ 1 µM) and 2 µg/mL (≈ 4.01 µM), respectively. Moreover, the “Rate of spontaneous resistance S. aureus 133” value in the assay on S. aureus 133 was <8 × 10^−9*; with S. aureus 133 (10 × MIC), <8 × 10^−9. Besides, the “Rate of spontaneous resistance S. aureus RN4220Bi^R” value is on record as <8 × 10^−9* in the assay on S. aureus RN4220Bi^R and <4 × 10^−9 with S. aureus RN4220Bi^R (10 × MIC). For the same compound, the “Rate of spontaneous resistance S. aureus RN4220” value was <6 × 10^−9* in the assay with S. aureus RN4220 and <6 × 10^−9 with S. aureus RN4220 (10 × MIC). Also, the “Rate of spontaneous resistance S. pneumoniae G9a” value in the assay on S. pneumoniae G9a is reported as <4 × 10^−8*. For the same compound, the “Rate of spontaneous resistance E. faecalis ICB 27159” value is recorded as <4 × 10^−9* in the assay on E. faecalis ICB 27159 (5 × MIC) and <4 × 10^−10* with E. faecalis ICB 27159 (10 × MIC). The “Rate of spontaneous resistance E. faecium L4001” value in the assay with E. faecium L4001 [4] (5 × MIC) was 4 × 10^−8; with E. faecium L4001 [4] (10 × MIC), <4 × 10^−9.

The term MIC denotes the lowest concentration that inhibits growth of the organism.
